# Literature values, collected in patent US20260137743A1, “METHODS OF RELIEVING PAIN” (Infinitum Health, LLC, priority 2023, published 2026).
# Details: isolated from Incarvillea sinensis
structure (smiles),measurement,value
"COc1cc([C@H]2[C@H](C(=O)O[C@@H]3C[C@@H]4[C@@H](CN(C)C[C@@H]4C)[C@@H]3C)[C@H](c3ccc(O)c(OC)c3)[C@H]2C(=O)O[C@@H]2C[C@@H]3[C@@H](CN(C)C[C@@H]3C)[C@@H]2C)ccc1O [Incarvillateine, incarvillateine]",analgesic (pain relief) activity,significant analgesic (pain relief) activity
